Results published in patent US11371077B2, “High throughput cell-based screening for aptamers” (MeiraGTx UK II Limited, priority 2016, dated 2022).
Structures can show the parent of a compound that is named as a salt. Where two headings read alike, the source gives them in different places.

Legend:
Type in all cases: cell-based
[1] = system: gdg6-G8 riboswitch; experiment: Luciferase reporter assay, gdg6-G8 riboswitch, transfected HEK 293 cells; details: gdg6-G8 riboswitch, Prestwick library compounds at 100 μM, HEK 293; for fold induction at 100 µM: Homo sapiens, HEK293
Excerpt: (§1) Riboswitches were constructed as described in PCT/US2016/016234 (in particular Examples 3 to 6), incorporated herein by reference. A truncated human beta-globin intron sequence was synthesized and inserted in the coding sequence of a firefly luciferase gene. A mutant human DHFR exon 2 was synthesized and inserted in the middle of this truncated beta-globin intron sequence using Golden gate cloning strategy. Aptamers including xpt-G/A^1, ydhl-G/A^2, yxj^3, add^4, gdg6-G/A^5 (citations for the aptamers are incorporated herein by reference) were synthesized as oligonucleotides (“oligos”) with 4 nucleotide overhang at the 5′ end that are complementary to two different BsaI sites individually (IDT), annealed and ligated to BsaI-digested mDHFR-Luci-acceptor vector.
(§2) 3.5×10^4 HEK 293 cells were plated in a 96-well flat bottom plate the day before transfection. Plasmid DNA (500 ng) was added to a tube or a 96-well U-bottom plate. Separately, TransIT-293 reagent (Mirus; 1.4 μL) was added to 50 μL Opti-mem I media (Life Technologies), and allowed to sit for 5 minutes at room temperature (RT). Then, 50 μL of this diluted transfection reagent was added to the DNA, mixed, and incubated at RT for 20 min. Finally, 7 μL of this solution was added to a well of cells in the 96-well plate.
(§3) 24 hours after media change, plates were removed from the incubator, and equilibrated to RT for several minutes on a lab bench, then aspirated. Glo-lysis buffer (Promega, 100 μL, RT) was added, and the plates maintained at RT for at least 5 minutes. Then, the well contents were mixed by 50 μL trituration, and 20 μL of each sample was mixed with 20 μL of bright-glo reagent (Promega) that had been diluted to 10% in glo-lysis buffer. 96 wells were spaced on an opaque white 384-well plate. Following a 5 min incubation at RT, luminescence was measured using a Tecan machine with 500 mSec read time. The luciferase activity was expressed as mean relative light unit (RLU)±S.D., and fold induction was calculated as the luciferase activity obtained with guanine treatment divided by luciferase activity obtained without guanine treatment.

[2] = system: gdg6-A8 riboswitch; experiment: Luciferase reporter assay, gdg6-A8 riboswitch, transfected HEK 293 cells; details: for fold induction at 100 µM: Homo sapiens, HEK293
Excerpt: as §1, §2, §3

[3] = system: add-G6 riboswitch; experiment: cells; details: for fold induction at 100 µM: Homo sapiens
Excerpt: (§4) A truncated human beta-globin intron sequence was synthesized and inserted in the coding sequence of a firefly luciferase gene. A mutant human DHFR exon 2 was synthesized and inserted in the middle of this truncated beta-globin intron sequence using Golden gate cloning strategy. Aptamers including xpt-G/A^1, ydhl-G/A^2, yxj^3, add^4, gdg6-G/A^5 (citations for the aptamers are incorporated herein by reference) were synthesized as oligonucleotides (“oligos”) with 4 nucleotide overhang at the 5′ end that are complementary to two different BsaI sites individually (IDT), annealed and ligated to BsaI-digested mDHFR-Luci-acceptor vector.
as §2, with “Separately, TransIT-293 reagent (Mirus; 1.4 μL) was added to 50 μL Opti-mem I media (Life Technologies), and allowed to sit for 5 minutes at room temperature (RT).” left out
as §3, with “The luciferase activity was expressed as mean relative light unit (RLU)±S.D., and fold induction was calculated as the luciferase activity obtained with guanine treatment divided by luciferase activity obtained without guanine treatment.” left out

[4] = system: xpt-G17 riboswitch; experiment: Luciferase reporter assay, xpt-G17 riboswitch, transfected HEK 293 cells; details: for fold induction at 100 µM: HEK293, xpt-G17 riboswitch; for response of guanine riboswitch xpt-G17 to compound (FIG. 1e): Prestwick library at 100 μM
Excerpt: as §4, §2, §3

[5] = system: ydhl-G8 riboswitch; experiment: Luciferase reporter assay, ydhl-G8 riboswitch, transfected HEK 293 cells; details: for fold induction at 100 µM: Homo sapiens
Excerpt: as §4
as §2, with “Separately, TransIT-293 reagent (Mirus; 1.4 μL) was added to 50 μL Opti-mem I media (Life Technologies), and allowed to sit for 5 minutes at room temperature (RT).” left out
as §3

[6] = gdg6-A8 riboswitch, Prestwick library compounds at 100 μM, HEK 293
[7] = HEK293, add-G6 riboswitch, Prestwick library compounds at 100 μM, HEK 293, read-out: Fold Induction of luciferase activity
[8] = Homo sapiens, Prestwick library compounds at 100 μM, HEK 293, preliminary screen
[9] = HEK293, read-out: Fold Induction of luciferase activity
[10] = add-G6 riboswitch, Prestwick library compounds at 100 μM, HEK 293

`CC(C)(C)NC[C@H](O)COc1ccccc1C1CCCC1` [Penbutolol sulfate] showed a fold induction at 100 µM [1] of 3.3.
In the case of `O=C(Nc1ccccc1)OCC(CN1CCCCC1)OC(=O)Nc1ccccc1` (stereo not shown) [Diperodon hydrochloride], the fold induction at 100 µM [2, 6] is reported as 3.
In the case of `COC(=O)Nc1nc2ccc(SC(C)C)cc2[nH]1` [Methiazole], the “Fold Induction of luciferase activity” value [2, 6] is reported as 3.8 fold and the “Fold Induction of luciferase activity” value [1] is reported as 3.3 fold.
`Clc1ccc(C(Cn2ccnc2)OCc2csc3c(Cl)cccc23)c(Cl)c1` (stereo not shown) [Sertaconazole Nitrate] gave a fold induction at 100 µM [3, 7] of 6.5.
With `Fc1ccc(C(c2ccc(F)cc2)N2CCN(C/C=C/c3ccccc3)CC2)cc1` [Flunarizine dihydrochloride] the fold induction at 100 µM [3, 7] was 4.7.
`C[C@]12CC[C@@H]3c4ccc(O)cc4CC[C@H]3[C@@H]1C[C@@H](O)[C@@H]2O` [Estriol] showed a fold induction at 100 µM [1] of 4.3.
For `C/C=C(/C(=C/C)c1ccc(O)cc1)c1ccc(O)cc1` [Dienestrol], the fold induction at 100 µM [2, 6] was 4.3.
In the case of `COc1ccc2[nH]c([S+]([O-])Cc3ncc(C)c(OC)c3C)nc2n1` (stereo not shown) [Tenatoprazole], the fold induction at 100 µM [4, 8] is reported as 3.2.
In the case of `Nc1ncnc2c1ncn2[C@@H]1O[C@H](COP(=O)(O)O)[C@@H](O)[C@H]1O.O` [Adenosine 5′-monophosphate monohydrate], the fold induction at 100 µM [4, 8] is reported as 28.4, the “response of guanine riboswitch xpt-G17 to compound (FIG. 1e)” value (“response of guanine riboswitch xpt-G17” for short) ([4]; preliminary screen) is reported as “responded” and the fold induction at 100 µM [3, 9] is reported as 9.4. It also gave a fold induction at 100 µM [5, 9] of 5.9.
`C[C@@H]1[C@H](O)[C@@H](C)/C=C/C=C/C=C/C=C/C=C/C=C/C=C/[C@H](O[C@@H]2O[C@H](C)[C@@H](O)[C@H](N)[C@@H]2O)C[C@@H]2O[C@](O)(C[C@@H](O)C[C@@H](O)[C@H](O)CC[C@@H](O)C[C@@H](O)CC(=O)O[C@H]1C)C[C@H](O)[C@H]2C(=O)O` [Amphotericin B] was tested, and the “response of guanine riboswitch xpt-G17” value ([4]; preliminary screen) was “responded”, the “Fold Induction of luciferase activity” value ([4]; xpt-G17 riboswitch, Prestwick library compounds at 100 μM, HEK 293, preliminary screen) was 21.5 fold and the “Fold Induction of luciferase activity” value [1] was 3.8 fold. For the same compound, the “Fold Induction of luciferase activity” value [3, 10] was 10.7 fold and the “Fold Induction of luciferase activity” value ([5]; ydhl-G8 riboswitch, Prestwick library compounds at 100 μM, HEK 293) was 6.5 fold.
`O=C(Nc1ccc([N+](=O)[O-])cc1Cl)c1cc(Cl)ccc1O` [Niclosamide] showed a fold induction at 100 µM [3, 7] of 3.
For Methotrimeprazine maleate salt, the “Fold Induction of luciferase activity” value ([2]; 100 µM) was 5.0 fold.
`[H]/N=C(/N)NS(=O)(=O)c1ccc(N)cc1` [Sulfaguanidine] gave a fold induction at 100 µM [5, 9] of 13.9.
For `CC[C@@]1(O)C(=O)OCc2c1cc1n(c2=O)Cc2cc3ccccc3nc2-1` [Camptothecine (S, +)], the “Fold Induction of luciferase activity” value [3, 10] was 5.7 fold.
Work on `CC(C)COCC(CN(Cc1ccccc1)c1ccccc1)N1CCCC1` (stereo not shown) [Bepridil hydrochloride] yielded a fold induction at 100 µM [3, 7] of 4.4.
With `CN(C)CCOC1=Cc2ccccc2Sc2ccc(Cl)cc21` [Zotepine] the fold induction at 100 µM [4, 8] was 4.3.
Work on `NC(=NCc1ccccc1)NC(=O)c1nc(Cl)c(N)nc1N` [Benzamil hydrochloride] yielded a fold induction at 100 µM [3, 7] of 3.
`CC(=O)O[C@]1(C(C)=O)CC[C@H]2[C@@H]3C=C(Cl)C4=CC(=O)CC[C@]4(C)[C@H]3CC[C@@]21C` [Chlormadinone acetate] was tested, and the fold induction at 100 µM [4, 8] was 10.3, the “response of guanine riboswitch xpt-G17” value ([4]; preliminary screen) was “responded” and the fold induction at 100 µM [3, 7] was 26.1. It also gave a fold induction at 100 µM [5, 9] of 10.4.
For `C#C[C@]1(O)CC[C@H]2[C@@H]3CCC4=CCCC[C@@H]4[C@H]3CC[C@@]21C` [Lynestrenol], the fold induction at 100 µM [3, 7] was 3.8.
`Nc1nc2nc[nH]c2c(=S)[nH]1` [Thioguanine] was tested, and the “response of guanine riboswitch xpt-G17” value ([4]; preliminary screen) was “responded”.
Work on `CC(=O)O[C@]1(C(C)=O)CC[C@H]2[C@@H]3C=C(C)C4=CC(=O)CC[C@@H]4[C@H]3CC[C@@]21C` [Nomegestrol acetate] yielded a fold induction at 100 µM [3, 7] of 3.5.
For `CNCCCC1c2ccccc2C=Cc2ccccc21` [Protriptyline hydrochloride], the fold induction at 100 µM [3, 7] was 5.
`NC(=O)c1ccc[n+]([C@@H]2O[C@H](COP(=O)([O-])OP(=O)(O)OC[C@H]3O[C@@H](n4cnc5c(N)ncnc54)[C@H](O)[C@@H]3O)[C@@H](O)[C@H]2O)c1` [Nadide] was tested, and the fold induction at 100 µM [4, 8] was ~40, the “response of guanine riboswitch xpt-G17” value ([4]; preliminary screen) was “responded” and the “Fold Induction of luciferase activity” value ([4]; xpt-G17 riboswitch, Prestwick library compounds at 100 μM, HEK 293, preliminary screen, 100 µM) was 40.9 fold. For the same compound, the fold induction at 100 µM [3, 7] was 30.8 and the fold induction at 100 µM [5, 9] was 11.7.
With `CN/C(=N/CCSCc1nc[nH]c1C)NC#N` [Cimetidine] the fold induction at 100 µM [2, 6] was 3.
`C#C[C@]1(O)CC[C@H]2[C@@H]3CCC4=Cc5oncc5C[C@]4(C)[C@H]3CC[C@@]21C` [Danazol] gave a fold induction at 100 µM [3, 7] of 3.7.
For Avermectin B1, the “Fold Induction of luciferase activity” value [3, 10] was 11.8 fold.
With `CCC(=O)O[C@H]1CC[C@H]2[C@@H]3CCC4=CC(=O)CC[C@]4(C)[C@H]3CC[C@]12C` [Testosterone propionate] the fold induction at 100 µM [4, 8] was 29, the “response of guanine riboswitch xpt-G17” value ([4]; preliminary screen) was “responded” and the fold induction at 100 µM [3, 9] was 8.8.
For Meclocycline sulfosalicylate, the “Fold Induction of luciferase activity” value [3, 10] was 3.4 fold.
Compound `O=C(OCCOCCO)c1ccccc1Nc1cccc(C(F)(F)F)c1` [Etofenamate] has a fold induction at 100 µM [4, 8] of 7.5, a fold induction at 100 µM [3, 7] of 5.1 and a fold induction at 100 µM [5, 9] of 4.8.
`CN1CCc2cccc3c2[C@H]1Cc1ccc(O)c(O)c1-3.CN1CCc2cccc3c2[C@H]1Cc1ccc(O)c(O)c1-3.Cl.Cl.O` [R(−)Apomorphine hydrochloride hemihydrate] was tested, and the “Fold Induction of luciferase activity” value [3, 10] was 3.4 fold.
Compound `O=C(CCCCCCC(=O)Nc1ccccc1)NO` [Vorinostat] has a fold induction at 100 µM [2, 6] of 6.4, a fold induction at 100 µM [1] of 10.2 and a fold induction at 100 µM [3, 7] of 3.6. For the same compound, the fold induction at 100 µM [5, 9] was 3.
`Clc1cc(Cl)c(OCC#CI)cc1Cl` [Haloprogin] was tested, and the fold induction at 100 µM [4, 8] was 5.1 and the fold induction at 100 µM [3, 7] was 5.9.
Work on `CCCCNc1ccc(C(=O)OCCN(C)C)cc1` [Tetracaine hydrochloride] yielded a fold induction at 100 µM [5, 9] of 3.6.
Work on `CN1CCCC(n2nc(Cc3ccc(Cl)cc3)c3ccccc3c2=O)CC1` (stereo not shown) [Azelastine hydrochloride] yielded a fold induction at 100 µM ([5]; HEK293, ydhl-G8 riboswitch, Prestwick library compounds at 100 μM, HEK 293, read-out: Fold Induction of luciferase activity) of 3.
With `CNc1ncnc2c1ncn2[C@@H]1O[C@H](CO)[C@@H](O)[C@H]1O` [N6-methyladenosine] the fold induction at 100 µM [4, 8] was 30.7, the “response of guanine riboswitch xpt-G17” value ([4]; preliminary screen) was “responded” and the fold induction at 100 µM [3, 7] was 20.8. For the same compound, the fold induction at 100 µM [5, 9] was 10.7.
`CC(=O)[C@H]1CC[C@H]2[C@@H]3CCC4=CC(=O)CC[C@]4(C)[C@H]3CC[C@]12C` [Progesterone] was tested, and the fold induction at 100 µM [4, 8] was 12, the “response of guanine riboswitch xpt-G17” value ([4]; preliminary screen) was “responded” and the fold induction at 100 µM [3, 7] was 6.
In the case of `O=C(COc1ccccc1)Nc1nc2nc[nH]c2c(=O)[nH]1` [N2-Phenoxyacetyl guanine], the fold induction at 500 µM ([4]; Homo sapiens, HEK293, 24 h, xpt-G17 construct, 500 μM concentration, FIG. 1c, 1d, read-out: fold induction of luciferase activity by guanine analogs (N2 compounds)) is reported as 1300.
Tyloxapol was tested, and the “Fold Induction of luciferase activity” value ([4]; 100 µM) was 16.2 fold and the “response of guanine riboswitch xpt-G17” value ([4]; preliminary screen) was “responded”.
